Molecules are shown by their SMILES. Some results are limits rather than exact numbers.

Melting point data for 90 compounds are collected here from a melting point compilation (Tetko et al.; mined from patent text by program, amines drawn as free bases though some values may be those of a salt).

One may read the melting point as the temperature, or range, at which the solid turns liquid. Take `CC1(C(=O)c2c[nH]c3ncc(-c4cccc(N5CCCC5)c4)nc23)CCCCC1`: the melting point was in the range of 180 to 182 °C.

In turn, `O=C(NCCN1CCC(Nc2nc3ccccc3n2Cc2ccc(F)cc2)CC1)c1cc2ccccc2[nH]1` returned a melting point of 232 °C.

`C=C[C@]1(C)C(=O)N(C)[C@H](C(C)(C)C)N1C(=O)c1ccccc1` came in with a melting point of 117 to 118 °C.

`O=C(/C=C/c1cccc(S(=O)(=O)N2CCN(Cc3ccccc3)CC2)c1)NO` yielded a melting point of 185 °C.

In turn, `C=CCOC(=O)NS(=O)(=O)CCc1cc(OCCCC)nn1Cc1ccc(Cl)cc1Cl` had a melting point of 94 to 95 °C.

With `CCCCc1nc2cccc(C(=O)O)c2n1Cc1ccc(-c2ccccc2-c2nnnn2C(c2ccccc2)(c2ccccc2)c2ccccc2)cc1`, the melting point lay within 120 to 123 °C.

As for `CC(=O)Nc1ccc(Cl)c2c1C(=O)C(NC(C)=O)CN2C(C)=O` (stereo not given), the melting point lay within 206 to 210 °C.

Compound `CCCOc1ccc(-c2scc(-c3ccccc3Cl)c2CC(=O)NC(=N)n2cccn2)cc1` yielded a melting point of 119 to 120 °C.

Compound `CCOC(=O)C(Oc1ccc(C(=O)CBr)cc1)C(=O)OCC` had a melting point of 55 to 58 °C.

Consider `C=CCC1(C(=O)NCCCC)c2ccccc2-c2ccccc21`, for which the melting point lay within 62.5 to 64 °C.

The compound `CCOc1ccccc1OS(N)(=O)=O` displayed a melting point of 62 to 65 °C.

Compound `Cc1cn(C)c(CO)n1` had a melting point of 125 to 126 °C.

Turning to `OCc1cnc(-c2cccs2)s1`, the melting point was 89 to 90 °C.

The compound `Cc1ccc(OC2CCN(C(=O)C(=O)Nc3ccc4[nH]c(=O)sc4c3)CC2)cc1` yielded a melting point of 215 to 217 °C.

For the compound `COc1ccc(C(=O)Nc2cc(C)cc(C)c2)cc1N`, the melting point fell in the range of 155 to 162 °C.

In turn, `CC(C)CNCC(O)c1cc(C(F)(F)F)nc2c(C(F)(F)F)cccc12` (stereo not given) came in with a melting point of 132 °C.

For the compound `COc1ccc(CCNc2nc(C)c(CCO)c(=O)[nH]2)cc1`, the melting point was determined as 180 °C.

The compound `Cc1cccc(NC(=O)NCC(=O)N(c2ccccc2)C(C(=O)OC(C)(C)C)c2cccc(Cl)c2)c1` (racemic) returned a melting point of 100 °C.

As to `CCCCCS(=O)(=O)NC(=O)OCc1ccc(OCCOC)cc1Oc1ncc(C(F)(F)F)cc1Cl`, the melting point was 130 to 132 °C.

The compound `O=C(CCl)c1ccc2c(c1)CCO2` gave a melting point of 85 to 87 °C.

In turn, `Cc1nccn1-c1nc(NCc2ccccc2)c2ccccc2n1` displayed a melting point of 182 to 186 °C.

The compound `CCCCCS(=O)(=O)NC(=O)C(Cc1ccc(OCCOC)cc1Oc1ncc(C(F)(F)F)cc1Cl)OC` (stereo not given) showed a melting point of 76 to 78 °C.

Take `CC(C)NC1=NS(=O)(=O)c2cc(N)ccc2N1`: the melting point lay in the range of 278 to 283 °C.

The compound `N#Cc1cc2cccnc2nc1O` had a melting point of 300 °C.

As to `C=CC(=O)OCC=C(C)CCC=C(C)CCC=C(C)CCC=C(C)CCC=C(C)CCC=C(C)CCC=C(C)CCC=C(C)CCC=C(C)CCC=C(C)C`, the melting point lay in the range of 32 to 32.8 °C.

As to `CCOC(=O)c1cnn(-c2ccc(Cl)cc2)c1C`, the melting point fell in the range of 55 to 56 °C.

The compound `CCC(C#N)Oc1cccc([N+](=O)[O-])c1Cl` (stereo not given) returned a melting point of 69 to 71 °C.

In the case of `COc1ccc(N2CCN(c3c(C)c(C)c4c(c3C)C(c3cccs3)C(C)(C)O4)CC2)cc1` (stereo not given), the melting point was 139 to 141 °C.

On to `COc1cccc(NC(=O)COC(C)=O)c1C#N`, for which the melting point lay in the range of 131 to 132 °C.

As for `CN(C)C=CC(=O)c1ccncc1`, the melting point lay within 114 to 116 °C.

In turn, `N#Cc1cc(C#N)c(SC2SCC(O)C(O)C2O)c(C#N)c1` (stereo not given) registered a melting point of 86 to 96 °C.

Take `COc1ccc(C(=O)Nc2ccccc2)cc1NCc1cc(C)cc(C)c1`: the melting point is 168 to 170 °C.

`CCOC(=O)C(=C(c1ccc(F)cc1)c1ccc(F)cc1)c1nnn(C)n1` displayed a melting point of 117 to 118 °C.

The compound `CSc1ccc2c(c1)C(=O)C(C)(C)C(=O)N2` had a melting point of 152 °C.

For the compound `CCOCc1nc2c(N)nc3cc(-c4ccccc4)ccc3c2n1CC(C)(C)NC(=O)NC1CCCCC1`, the melting point lay within 152 to 156 °C.

Regarding `Nc1cccc(C(=O)N(CCN2CCC(C(=O)c3ccc(F)cc3)CC2)c2ccc(F)cc2)c1`, the melting point is 159 to 162 °C.

`CC(=O)c1cccc(OC2SCC(O)C(O)C2O)c1` (stereo not given) came in with a melting point of 166 to 174 °C.

Take `COc1ccc(-c2cc(C(F)(F)F)n(C)c2-c2ccc(OC)cc2)cc1`: the melting point is 125 to 126 °C.

`O=C1CC(CO)C(c2c(Cl)cccc2Cl)N1Cc1ccccc1` (stereo not given): the melting point lay in the range of 122 to 126 °C.

Consider `CCCCCSc1cc(C(C)(C)C)c(O)c(C(C)(C)C)c1`, for which the melting point was in the range of 54 to 55 °C.

In the case of `CC(=O)n1[nH]c(=O)n(-c2ccccc2)c1=O`, the melting point lay in the range of 215 to 218 °C.

On to `CCCCn1c(-c2ccccc2)c(Cc2c(O)ccc3ccccc23)c(=O)[nH]c1=S`, for which the melting point was in the range of 201 to 203 °C.

`COC1=CC(=O)C2CC=CCC2C1=O` (stereo not given): the melting point lay within 120 to 122 °C.

With `CC12CCC3C(CCC4=CC(=O)CCC43CO)C1CCC2O` (stereo not given), the melting point lay in the range of 205 to 207 °C.

For the compound `COC(=O)C12C3C4(C(=O)OC)C1C1(C(=O)OC)C2C3(C(=O)OC)C41Cl` (stereo not given), the melting point lay within 178 to 180 °C.

`Cc1ccccc1-c1ccc(C(=O)N2Cc3ccc(C(=O)C(Cl)(Cl)Cl)n3Cc3ccccc32)cc1C` showed a melting point of 212 to 214 °C.

For `CCOC(=O)Nc1ccc(C(c2ccccc2)n2ccnc2)cc1CO` (stereo not given), the melting point amounted to 143 °C.

In turn, `COCO[C@@H](C(=O)OC)[C@@H](Sc1ccccc1[N+](=O)[O-])c1ccc(OC)cc1` returned a melting point of 155 to 158 °C.

`COc1cc(C(C#N)O[Si](C)(C)C(C)(C)C)cc(OC)c1OC` (stereo not given): the melting point amounted to 43 °C.

Take `Cc1ccc(C(=O)C2=C(O)C(=O)N(c3ncc(S(=O)(=O)c4ccc([N+](=O)[O-])cc4)s3)C2c2ccc(C(=O)N(C)C)cc2)cc1` (stereo not given): the melting point worked out at 205 °C.

`N#Cc1ccc(-c2ccc(OCCCC(=O)NO)cc2)cc1` yielded a melting point of 170 to 172 °C.

`CN1CCC(c2cc3c(N(C)C)cccc3c(=O)[nH]2)CC1` returned a melting point of 216 to 218 °C.

Turning to `O=c1[nH]c2cc(Cl)ccc2c(O)c1-c1ccc([N+](=O)[O-])cc1`, the melting point is over 350 °C.

In turn, `CC1(C)C2CCC1(C(=O)P(=O)(c1ccccc1)c1ccccc1)C(=O)C2=O` (stereo not given) had a melting point of 92.1 °C.

`CNc1nc(N2CCN(Cc3ccccc3)CC2)ncc1CCO` displayed a melting point of 119 to 120 °C.

Compound `C[C@@H](Nc1ncnc2cc(OCCO)c([N+](=O)[O-])cc12)c1ccccc1` displayed a melting point of 187 to 192 °C.

As for `O=C1CCC(N2C(=O)c3ccc(CNC(=O)Nc4ccc(Cl)c(Cl)c4)cc3C2=O)C(=O)N1` (stereo not given), the melting point lay in the range of 290 to 292 °C.

As for `O=C1N(Cc2ccc(C(F)(F)F)o2)c2ccc(F)cc2C12COc1cc3c(cc12)OCO3` (stereo not given), the melting point is 139 to 141 °C.

Compound `O=c1[nH]c2ccc(CCN3CCN(c4cccc5c4CCCC5)CC3)cc2o1` had a melting point of 200 °C.

Regarding `NNC(=O)c1ccc2oc3ccccc3c2c1`, the melting point lay within 216 to 218 °C.

Compound `O=C(NC(=O)c1cccs1)NC1CN2CCC1CC2` (stereo not given) had a melting point of 232 to 233 °C.

Regarding `CCCC(CO)(CCC)N(OC(C)c1ccccc1)C(C)(C)CO` (stereo not given), the melting point lay within 88 to 92 °C.

`CCCN1CC(c2ccc(S(C)(=O)=O)cc2)=C(c2ccc(F)cc2)C1=O` yielded a melting point of 120 to 121 °C.

As to `CCOC(=O)CC(C)Nc1ccc(OC)c(OC)c1` (stereo not given), the melting point fell in the range of 59 to 60 °C.

Turning to `CC1(C)CC(=O)c2c(-c3cncs3)cn(-c3ccccn3)c2C1`, the melting point fell in the range of 167 to 169 °C.

Turning to `COc1ccc(S(=O)(=O)Nc2cccnc2Nc2ccccc2O)cc1`, the melting point is 154 to 155 °C.

As to `CC(C#N)(C#N)Cc1ccc(Cl)cc1`, the melting point is 91.1 °C.

With `CC(=O)SCC(C)C(=O)N(CC(=O)O)C1CCC1` (stereo not given), the melting point is 162 to 164 °C.

With `CCCCOc1c(CNC(=O)OC(C)(C)C)n(CC(C)C)c(=O)c2ccc(-c3ccccc3)cc12`, the melting point lay within 155 to 159 °C.

In turn, `O=C(NC=CC1CC2C=CC1C2)n1cc(F)c(=O)[nH]c1=O` (stereo not given) had a melting point of 130 to 132 °C.

`CS(=O)(=O)NNc1ccnc2c(NC(=O)c3c(Cl)cccc3Cl)cccc12`: the melting point lay within 156 to 164 °C.

In turn, `CCCn1c(-c2ccc(-n3ccnc3)cc2)cnc1[C@H](Cc1ccccn1)N(C=O)c1cc2cc(F)ccc2o1` returned a melting point of 77 to 81 °C.

Regarding `COc1cc(Br)nc(NC(=O)NS(=O)(=O)c2cccc3c2SCC3)n1`, the melting point was 238 to 240 °C.

In the case of `Cc1c(-c2ccccc2)oc2c(C(=O)OCCCBr)cccc2c1=O`, the melting point lay in the range of 114 to 115 °C.

On to `CC(=O)Nc1ccc(C(=O)O)cc1OCCO`, for which the melting point turned out to be 208 °C.

Compound `Cc1ccccc1-c1cccc(C=CC(=O)O)c1` returned a melting point of 124 to 125 °C.

The compound `Nc1cc2c(cn1)[nH]c1ccccc12` came in with a melting point of 288 to 290 °C.

The compound `O=C(O)CCC1CC(O)C(=O)N1` (stereo not given) gave a melting point of 129 to 132 °C.

As to `Nc1scc2c1C(=O)c1ccc(Cl)cc1-2`, the melting point was 201 to 202 °C.

For the compound `C=CCC(=O)Nc1n[nH]c2cc(Cl)ccc12`, the melting point is 150 °C.

Consider `CN1CCN(c2ccc(Nc3ncc4ccc(Nc5ccccc5)n4n3)cc2)CC1`, for which the melting point lay in the range of 152 to 157 °C.

Compound `COC(=O)c1ccccc1NC(=O)OCC1CCN(CCNS(C)(=O)=O)CC1` displayed a melting point of 106 to 108 °C.

Compound `N#Cc1ccc(C=O)c(SCCc2ccccc2)c1` registered a melting point of 89 °C.

Turning to `CC(=O)Nc1nc(CCc2ccc(N)cc2)c(C(=O)NCc2ccc(S(C)(=O)=O)cc2)s1`, the melting point is 78 to 80 °C.

With `c1ccc(P(Cc2ccccc2-c2ccccc2CP(c2ccccc2)c2ccccc2)c2ccccc2)cc1`, the melting point is 84 to 87 °C.

On to `Oc1ccccc1C=NNc1nc(C(Cl)(Cl)Cl)ns1`, for which the melting point is 204 to 205 °C.

As to `CC(=O)C1CCC2C3CCC4CC(F)CCC4(C)C3CCC12C` (stereo not given), the melting point was in the range of 154 to 155 °C.

`CC(=O)C1=C(O)C(=C(C)Nc2ccc(F)cc2)C(=O)OC1=O`: the melting point lay within 199 to 201 °C.

`COc1nc(N)nc(OC)c1C1=NCCN1` yielded a melting point of 230 °C.

Compound `Oc1ccc(-c2n[nH]c3ncnc(Nc4cccc(Cl)c4)c23)cc1` showed a melting point of over 220 °C.
